Data reported in ChEMBL document CHEMBL4507280 (2021).
Calls of active or inactive are those of the source. The rule behind the calls is not given here.

Legend:
[1] = biological target: T1, Sigma intracellular receptor 2 (Homo sapiens, UniProt Q5BJF2); experiment: GPCRScan assay: inhibition of Sigma 2; parameters: radioligand conc. used [nm] 5.0, parental cells HEKT
[2] = biological target: Ribosomal protein S6 kinase alpha-5 (Homo sapiens) (UniProt O75582); settings: Compound concentration 1000.0 nM
[3] = biological target: Glycogen synthase kinase-3 beta (Homo sapiens) (UniProt P49841); settings: Compound concentration 1000.0 nM
[4] = biological target: NUAK family SNF1-like kinase 2 (Homo sapiens) (UniProt Q9H093); settings: Compound concentration 1000.0 nM
[5] = biological target: Tyrosine-protein kinase Fgr (Homo sapiens) (UniProt P09769); settings: Compound concentration 1000.0 nM
[6] = biological target: Peripheral plasma membrane protein CASK (Homo sapiens) (UniProt O14936); settings: Compound concentration 1000.0 nM
[7] = biological target: Serine/threonine-protein kinase BRSK1 (Homo sapiens) (UniProt Q8TDC3); settings: Compound concentration 1000.0 nM
[8] = tested on: Tyrosine-protein kinase ABL1 (Homo sapiens), P00519 [Y253F]; settings: Compound concentration 1000.0 nM
[9] = biological target: Adenosine receptor A1 (Homo sapiens) (UniProt P30542); experiment: A1/HU Eurofins-Panlabs selectivity data (BI); settings: Compound concentration 10.0 uM
[10] = biological target: T2, Alpha-1B adrenergic receptor (Homo sapiens) (UniProt P35368); experiment: ALPHA1B/R Eurofins-Panlabs selectivity data (BI); settings: Rattus norvegicus; Compound concentration 10.0 uM
T2 sequence (whole entry): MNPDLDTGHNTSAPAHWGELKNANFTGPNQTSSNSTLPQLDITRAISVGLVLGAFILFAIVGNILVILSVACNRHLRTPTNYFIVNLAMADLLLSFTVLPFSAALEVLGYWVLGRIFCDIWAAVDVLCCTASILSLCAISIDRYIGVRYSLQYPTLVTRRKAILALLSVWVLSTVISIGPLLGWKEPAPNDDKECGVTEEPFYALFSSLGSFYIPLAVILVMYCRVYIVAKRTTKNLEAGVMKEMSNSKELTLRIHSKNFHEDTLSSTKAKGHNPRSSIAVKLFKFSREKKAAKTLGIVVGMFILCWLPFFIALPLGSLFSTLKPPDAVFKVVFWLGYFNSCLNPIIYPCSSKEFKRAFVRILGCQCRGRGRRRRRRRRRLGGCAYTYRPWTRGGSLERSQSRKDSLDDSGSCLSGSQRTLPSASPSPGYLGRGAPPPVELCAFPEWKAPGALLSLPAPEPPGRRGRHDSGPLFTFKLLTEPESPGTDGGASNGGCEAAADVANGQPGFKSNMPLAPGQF

[11] = biological target: Gamma-aminobutyric acid receptor subunit alpha-1 (Rattus norvegicus) (UniProt P62813); experiment: GABAACENTR Eurofins-Panlabs selectivity data (BI); settings: Compound concentration 10.0 uM
[12] = biological target: Beta-1 adrenergic receptor (Homo sapiens) (UniProt P08588); experiment: BETA1/HU Eurofins-Panlabs selectivity data (BI); settings: Compound concentration 10.0 uM
[13] = biological target: 3',5'-cyclic-AMP phosphodiesterase 4A (Rattus norvegicus) (UniProt P54748); experiment: ROLIPRAM/R Eurofins-Panlabs selectivity data (BI); settings: Compound concentration 10.0 uM
[14] = biological target: T3, Alpha-1A adrenergic receptor (Homo sapiens) (UniProt P35348); experiment: ALPHA1A/R Eurofins-Panlabs selectivity data (BI); settings: Rattus norvegicus; Compound concentration 10.0 uM
T3 sequence (whole entry): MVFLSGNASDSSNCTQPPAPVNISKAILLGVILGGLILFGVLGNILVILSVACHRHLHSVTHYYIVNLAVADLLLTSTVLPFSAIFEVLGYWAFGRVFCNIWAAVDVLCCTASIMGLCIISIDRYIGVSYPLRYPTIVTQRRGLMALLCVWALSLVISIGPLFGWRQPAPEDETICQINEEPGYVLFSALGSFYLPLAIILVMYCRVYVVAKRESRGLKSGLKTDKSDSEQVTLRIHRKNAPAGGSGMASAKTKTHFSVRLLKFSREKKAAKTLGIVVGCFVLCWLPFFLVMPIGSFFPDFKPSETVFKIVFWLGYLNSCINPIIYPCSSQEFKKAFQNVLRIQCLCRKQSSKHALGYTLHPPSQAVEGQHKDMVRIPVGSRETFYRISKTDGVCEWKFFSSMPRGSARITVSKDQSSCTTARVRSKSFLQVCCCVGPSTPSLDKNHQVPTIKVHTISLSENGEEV

[15] = biological target: Prostaglandin E2 receptor EP4 subtype (Homo sapiens) (UniProt P35408); experiment: EP4/H Eurofins-Panlabs selectivity data (BI); settings: Compound concentration 10.0 uM
[16] = biological target: ATP-sensitive inward rectifier potassium channel 1 isoform X1 (Mesocricetus auratus) (UniProt A0A1U8CU73); experiment: K+/KATP/HA Eurofins-Panlabs selectivity data (BI); settings: Compound concentration 10.0 uM
[17] = biological target: 5-hydroxytryptamine receptor 7 (Homo sapiens) (UniProt P34969); settings: Compound concentration 10.0 uM
[18] = biological target: Glutamate receptor ionotropic, NMDA 2A (Rattus norvegicus) (UniProt Q00959); experiment: NMDAPHSI/R Eurofins-Panlabs selectivity data (BI); settings: Compound concentration 10.0 uM
[19] = biological target: Dual specificity mitogen-activated protein kinase kinase 5 (Homo sapiens) (UniProt Q13163); settings: Compound concentration 1000.0 nM
[20] = biological target: Nicotinic acetylcholine receptor alpha-1/beta-1 (Homo sapiens) (UniProt P02708+P11230); experiment: NACH_BS_N/H Eurofins-Panlabs selectivity data (BI); type: protein-complex assay; settings: Compound concentration 10.0 uM
[21] = biological target: Voltage-dependent L-type calcium channel subunit alpha-1C (DHP site) (Rattus norvegicus, UniProt P22002); experiment: CA+/DHPSI/RA Eurofins-Panlabs selectivity data (BI); settings: compound concentration 10 uM, read-out: % Ctrl
[22] = biological target: T1, Sigma intracellular receptor 2; experiment: SIGMA2/R Eurofins-Panlabs selectivity data (BI); settings: Rattus norvegicus; Compound concentration 10.0 uM
[23] = biological target: Sigma non-opioid intracellular receptor 1 (Homo sapiens) (UniProt Q99720); experiment: SIGMA1/HU Eurofins-Panlabs selectivity data (BI); settings: Compound concentration 10.0 uM
[24] = biological target: Sodium-dependent noradrenaline transporter (Homo sapiens) (UniProt P23975); experiment: NETRANS/H Eurofins-Panlabs selectivity data (BI); settings: Compound concentration 10.0 uM
Fatty acid synthase = Fatty acid synthase (Homo sapiens, UniProt P49327); experiment: Inhibition of [14C]acetate incorporation into human H1975 cells; type: cell-based, NCI-H1975
[25] = biological target: Acetylcholine receptor subunit alpha (Homo sapiens) (UniProt P02708); experiment: NACH/H Eurofins-Panlabs selectivity data (BI); settings: Compound concentration 10.0 uM

T1 sequence (Q5BJF2 whole entry): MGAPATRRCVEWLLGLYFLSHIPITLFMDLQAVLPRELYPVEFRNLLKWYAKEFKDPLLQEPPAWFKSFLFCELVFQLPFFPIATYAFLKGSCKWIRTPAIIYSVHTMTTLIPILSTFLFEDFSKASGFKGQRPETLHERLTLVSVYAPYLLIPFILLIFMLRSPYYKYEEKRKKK
Sequence of 3',5'-cyclic-AMP phosphodiesterase 4A (Rattus norvegicus) (P54748 whole entry): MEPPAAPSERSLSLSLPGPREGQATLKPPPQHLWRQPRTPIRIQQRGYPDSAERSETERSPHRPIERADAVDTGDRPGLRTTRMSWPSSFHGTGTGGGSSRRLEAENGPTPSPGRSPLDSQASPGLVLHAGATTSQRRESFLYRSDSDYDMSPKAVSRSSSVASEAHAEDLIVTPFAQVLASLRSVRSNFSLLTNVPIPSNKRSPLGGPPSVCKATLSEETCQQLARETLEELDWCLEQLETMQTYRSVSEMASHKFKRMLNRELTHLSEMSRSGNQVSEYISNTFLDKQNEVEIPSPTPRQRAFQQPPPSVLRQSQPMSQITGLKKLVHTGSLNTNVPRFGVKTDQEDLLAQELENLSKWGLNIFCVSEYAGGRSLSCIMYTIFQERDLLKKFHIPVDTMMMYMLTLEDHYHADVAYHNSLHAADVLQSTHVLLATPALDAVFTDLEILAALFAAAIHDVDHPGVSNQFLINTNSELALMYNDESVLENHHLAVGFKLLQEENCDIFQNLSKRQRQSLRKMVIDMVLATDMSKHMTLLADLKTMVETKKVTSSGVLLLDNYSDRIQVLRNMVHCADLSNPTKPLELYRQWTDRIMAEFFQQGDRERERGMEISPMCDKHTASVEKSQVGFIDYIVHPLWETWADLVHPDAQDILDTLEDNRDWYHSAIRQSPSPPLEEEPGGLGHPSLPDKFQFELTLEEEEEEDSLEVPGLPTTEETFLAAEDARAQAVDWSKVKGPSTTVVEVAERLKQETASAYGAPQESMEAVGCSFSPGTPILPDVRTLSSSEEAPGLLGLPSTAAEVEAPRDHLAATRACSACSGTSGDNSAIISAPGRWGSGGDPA
Sequence of Glutamate receptor ionotropic, NMDA 2A (Rattus norvegicus) (Q00959 23-1464 limits assumed): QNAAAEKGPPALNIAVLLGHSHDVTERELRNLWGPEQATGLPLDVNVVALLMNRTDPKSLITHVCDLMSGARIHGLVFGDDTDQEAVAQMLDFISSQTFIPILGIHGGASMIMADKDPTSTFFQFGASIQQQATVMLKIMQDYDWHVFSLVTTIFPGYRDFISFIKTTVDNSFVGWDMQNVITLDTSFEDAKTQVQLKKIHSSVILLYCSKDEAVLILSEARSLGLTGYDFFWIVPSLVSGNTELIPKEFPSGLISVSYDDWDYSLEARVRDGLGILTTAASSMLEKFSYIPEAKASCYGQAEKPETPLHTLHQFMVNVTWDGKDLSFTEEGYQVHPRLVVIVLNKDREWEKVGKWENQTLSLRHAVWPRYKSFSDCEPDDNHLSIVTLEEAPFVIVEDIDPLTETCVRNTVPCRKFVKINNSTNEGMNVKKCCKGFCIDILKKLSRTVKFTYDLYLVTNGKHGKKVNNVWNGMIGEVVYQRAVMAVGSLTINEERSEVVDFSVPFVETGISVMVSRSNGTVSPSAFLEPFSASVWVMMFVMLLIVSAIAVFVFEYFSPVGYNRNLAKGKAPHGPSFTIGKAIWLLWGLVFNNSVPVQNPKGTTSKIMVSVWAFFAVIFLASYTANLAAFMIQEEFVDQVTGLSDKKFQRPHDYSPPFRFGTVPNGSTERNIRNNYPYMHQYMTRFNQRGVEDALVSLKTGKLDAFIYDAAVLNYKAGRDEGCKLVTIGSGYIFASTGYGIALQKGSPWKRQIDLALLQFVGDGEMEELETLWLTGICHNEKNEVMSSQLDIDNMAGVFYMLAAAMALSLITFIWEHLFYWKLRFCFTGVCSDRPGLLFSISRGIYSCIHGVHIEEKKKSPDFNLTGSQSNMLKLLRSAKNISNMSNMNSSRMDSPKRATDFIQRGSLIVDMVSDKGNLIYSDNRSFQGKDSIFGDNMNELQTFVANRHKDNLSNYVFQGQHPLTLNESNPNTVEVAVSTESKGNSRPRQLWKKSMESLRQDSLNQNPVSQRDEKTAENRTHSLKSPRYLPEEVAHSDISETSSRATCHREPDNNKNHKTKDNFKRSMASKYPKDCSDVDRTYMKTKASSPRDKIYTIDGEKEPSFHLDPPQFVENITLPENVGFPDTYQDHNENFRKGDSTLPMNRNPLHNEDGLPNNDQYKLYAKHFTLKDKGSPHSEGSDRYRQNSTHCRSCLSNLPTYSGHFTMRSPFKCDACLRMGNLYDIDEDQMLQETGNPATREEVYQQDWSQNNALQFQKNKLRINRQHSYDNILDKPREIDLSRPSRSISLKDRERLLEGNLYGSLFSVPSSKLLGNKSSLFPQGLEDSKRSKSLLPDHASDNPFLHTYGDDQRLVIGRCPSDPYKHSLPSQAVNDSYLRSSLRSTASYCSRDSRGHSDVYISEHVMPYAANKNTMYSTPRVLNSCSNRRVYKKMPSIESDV
Sequence of 5-hydroxytryptamine receptor 7 (Homo sapiens) (P34969 whole entry): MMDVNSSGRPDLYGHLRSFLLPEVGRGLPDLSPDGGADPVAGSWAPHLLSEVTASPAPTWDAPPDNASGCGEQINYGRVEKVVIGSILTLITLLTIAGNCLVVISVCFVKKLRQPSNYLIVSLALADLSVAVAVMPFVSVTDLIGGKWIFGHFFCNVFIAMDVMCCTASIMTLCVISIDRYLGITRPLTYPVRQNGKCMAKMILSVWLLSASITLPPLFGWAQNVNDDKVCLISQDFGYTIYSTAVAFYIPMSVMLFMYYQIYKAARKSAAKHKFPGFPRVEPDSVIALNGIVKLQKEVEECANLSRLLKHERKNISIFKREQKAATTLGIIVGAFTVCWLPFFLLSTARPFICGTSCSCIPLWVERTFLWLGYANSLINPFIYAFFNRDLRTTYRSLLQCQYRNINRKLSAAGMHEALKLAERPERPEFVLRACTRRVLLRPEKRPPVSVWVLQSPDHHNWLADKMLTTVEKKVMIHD
Sequence of Prostaglandin E2 receptor EP4 subtype (Homo sapiens) (P35408 whole entry, canonical isoform): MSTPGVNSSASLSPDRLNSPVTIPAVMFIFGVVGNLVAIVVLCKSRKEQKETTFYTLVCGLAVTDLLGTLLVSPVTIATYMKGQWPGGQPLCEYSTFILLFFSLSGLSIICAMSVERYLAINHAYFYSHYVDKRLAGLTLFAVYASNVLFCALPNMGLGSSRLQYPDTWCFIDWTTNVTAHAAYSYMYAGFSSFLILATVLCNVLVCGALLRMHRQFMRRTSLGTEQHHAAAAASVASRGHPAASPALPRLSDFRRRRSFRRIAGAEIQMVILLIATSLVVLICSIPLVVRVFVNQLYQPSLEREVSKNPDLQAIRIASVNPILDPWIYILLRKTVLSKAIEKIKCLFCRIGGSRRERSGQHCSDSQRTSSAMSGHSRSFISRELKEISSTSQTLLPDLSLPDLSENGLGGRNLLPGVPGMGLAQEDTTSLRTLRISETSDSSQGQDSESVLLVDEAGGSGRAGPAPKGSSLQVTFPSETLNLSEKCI
Sequence of Glycogen synthase kinase-3 beta (Homo sapiens) (P49841 whole entry, looked up): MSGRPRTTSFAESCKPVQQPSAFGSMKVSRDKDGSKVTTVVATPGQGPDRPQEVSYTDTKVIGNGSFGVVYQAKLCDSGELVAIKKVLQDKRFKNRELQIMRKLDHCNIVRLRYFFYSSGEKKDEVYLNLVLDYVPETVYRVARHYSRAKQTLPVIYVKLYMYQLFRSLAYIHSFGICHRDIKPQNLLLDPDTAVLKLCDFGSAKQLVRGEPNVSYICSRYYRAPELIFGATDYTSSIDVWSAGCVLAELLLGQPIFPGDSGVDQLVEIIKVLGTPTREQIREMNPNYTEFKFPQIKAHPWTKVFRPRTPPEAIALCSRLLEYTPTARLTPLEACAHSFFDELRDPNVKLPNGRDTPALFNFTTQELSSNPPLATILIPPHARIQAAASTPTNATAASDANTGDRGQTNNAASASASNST
Sequence of Adenosine receptor A1 (Homo sapiens) (P30542 whole entry): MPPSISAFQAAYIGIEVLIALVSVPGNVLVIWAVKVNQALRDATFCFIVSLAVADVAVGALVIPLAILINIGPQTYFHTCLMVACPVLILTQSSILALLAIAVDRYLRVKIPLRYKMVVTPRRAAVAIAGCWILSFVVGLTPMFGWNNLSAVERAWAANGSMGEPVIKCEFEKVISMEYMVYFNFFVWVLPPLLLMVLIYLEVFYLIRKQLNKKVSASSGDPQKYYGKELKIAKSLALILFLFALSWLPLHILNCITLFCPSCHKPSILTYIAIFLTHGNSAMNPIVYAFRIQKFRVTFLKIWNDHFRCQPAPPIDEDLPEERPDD
Sequence of Ribosomal protein S6 kinase alpha-5 (Homo sapiens) (O75582 whole entry, looked up): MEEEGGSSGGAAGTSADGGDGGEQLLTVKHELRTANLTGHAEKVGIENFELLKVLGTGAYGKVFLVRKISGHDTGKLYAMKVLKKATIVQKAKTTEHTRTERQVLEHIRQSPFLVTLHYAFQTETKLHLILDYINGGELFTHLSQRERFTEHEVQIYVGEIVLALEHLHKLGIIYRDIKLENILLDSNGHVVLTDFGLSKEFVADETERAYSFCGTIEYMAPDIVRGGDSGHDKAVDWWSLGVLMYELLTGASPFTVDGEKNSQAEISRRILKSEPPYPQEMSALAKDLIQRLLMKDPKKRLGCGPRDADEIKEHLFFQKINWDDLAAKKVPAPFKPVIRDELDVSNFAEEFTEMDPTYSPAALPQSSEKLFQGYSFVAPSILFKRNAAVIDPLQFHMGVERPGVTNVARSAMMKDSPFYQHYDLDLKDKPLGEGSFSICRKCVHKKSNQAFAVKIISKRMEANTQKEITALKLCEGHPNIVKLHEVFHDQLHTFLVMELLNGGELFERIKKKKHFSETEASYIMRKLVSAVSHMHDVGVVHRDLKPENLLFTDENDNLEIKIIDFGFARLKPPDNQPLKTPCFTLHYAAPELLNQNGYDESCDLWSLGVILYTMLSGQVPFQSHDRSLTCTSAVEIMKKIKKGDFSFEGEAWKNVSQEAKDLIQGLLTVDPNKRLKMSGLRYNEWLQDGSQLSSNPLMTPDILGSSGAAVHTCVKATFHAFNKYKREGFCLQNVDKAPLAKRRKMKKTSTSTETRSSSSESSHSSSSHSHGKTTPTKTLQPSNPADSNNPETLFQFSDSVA

Compound: CCC(=O)N[C@@H]1CC[C@H](C(=O)N(C)c2ccc(-c3nc4ccccc4o3)cc2)C1 [BI 99990]
- Ki [1]: 396 nM
- residual activity [2]: 75%
- residual activity [3]: 96%
- residual activity [4]: 100%
- residual activity [5]: 100%
- residual activity [6]: 83%
- residual activity [7]: 100%
- residual activity [8]: 95%

Compound: CCC(=O)N[C@H]1CC[C@@H](C(=O)N(C)c2ccc(-c3nc4ccccc4o3)cc2)C1 [BI 99179]
- residual activity [9]: 107%
- residual activity [10]: 96%
- residual activity [11]: 92%
- residual activity [12]: 96%
- residual activity [13]: 83%
- residual activity [14]: 83%
- residual activity [15]: 91%
- residual activity [16]: 88%
- inhibition [17]: -6.53%
- residual activity [18]: 101%
- residual activity [19]: 16%
- residual activity [20]: 91%
- activity at 10 µM [21]: 93% (not active)
- residual activity [22]: 87%
- residual activity [23]: 102%
- residual activity [24]: 91%
- IC50 (Fatty acid synthase): 180 nM (active)
- residual activity [25]: 113%
